Data as given in PubChem BioAssay AID248 (DTP/NCI, 2004).
Where “and” joins values, the source holds several entries; their conditions need not be identical. Identical values can stand only once. Toxic doses and inconclusive results are not listed. Cut-off read from the data, not from the text of the source: active = T/C of 150% or more; inactive = T/C below 125%.

Test system: L1210 leukemia ip in BDF1 mice, survival T/C
Experiment: NCI In Vivo Anticancer Drug Screen. Data for tumor model L1210 Leukemia (intraperitoneal) in B6D2F1 (BDF1) mice
Details: endpoint: mean survival time, higher = longer survival
Method in brief: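 Read-out is survival time, reported as the treated-group measurement over the vehicle-control measurement.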

[1] = dose: 100.0 mg/kg/injection, schedule: Q01DX001 (ip), vehicle: saline
[2] = dose: 200.0 mg/kg/injection, schedule: Q01DX001 (ip), vehicle: saline
[3] = dose: 100.0 mg/kg/injection, schedule: Q04DX002 (ip), vehicle: saline with Tween-80
[4] = dose: 200.0 mg/kg/injection, schedule: Q04DX002 (ip), vehicle: saline with Tween-80
[5] = dose: 400.0 mg/kg/injection, schedule: Q04DX002 (ip), vehicle: saline with Tween-80
[6] = dose: 100.0 mg/kg/injection, schedule: Q04DX002 (ip), vehicle: Klucel (hydroxypropylcellulose) (HPC)
[7] = dose: 200.0 mg/kg/injection, schedule: Q04DX002 (ip), vehicle: Klucel (hydroxypropylcellulose) (HPC)
[8] = dose: 400.0 mg/kg/injection, schedule: Q04DX002 (ip), vehicle: Klucel (hydroxypropylcellulose) (HPC)
[9] = dose: 50.0 mg/kg/injection, schedule: Q01DX001 (ip), vehicle: saline
[10] = dose: 400.0 mg/kg/injection, schedule: Q01DX001 (ip), vehicle: saline
[11] = dose: 50.0 mg/kg/injection, schedule: Q01DX009 (ip), vehicle: saline with Tween-80
[12] = dose: 100.0 mg/kg/injection, schedule: Q01DX009 (ip), vehicle: Klucel (hydroxypropylcellulose) (HPC)
[13] = dose: 100.0 mg/kg/injection, schedule: Q04DX003 (ip), vehicle: saline
[14] = dose: 200.0 mg/kg/injection, schedule: Q01DX009 (ip), vehicle: Klucel (hydroxypropylcellulose) (HPC)
[15] = dose: 200.0 mg/kg/injection, schedule: Q04DX003 (ip), vehicle: saline
[16] = dose: 400.0 mg/kg/injection, schedule: Q01DX009 (ip), vehicle: Klucel (hydroxypropylcellulose) (HPC)
[17] = dose: 400.0 mg/kg/injection, schedule: Q04DX003 (ip), vehicle: saline

Measured: T/C

O=c1c(Cl)c(-c2ccccc2)nc2ccccn12
inactive: dose: 12.5 mg/kg/injection, schedule: Q01DX001 (ip), vehicle: saline with Tween-80 100 % of control | dose: 25.0 mg/kg/injection, schedule: Q01DX001 (ip), vehicle: saline with Tween-80 110 % of control | dose: 50.0 mg/kg/injection, schedule: Q01DX001 (ip), vehicle: saline with Tween-80 93 % of control

CC(=O)Nc1ncnc(NC(C)=O)c1N=O
inactive: [1] 93 % of control | [2] 102 % of control

COC(=O)c1cn2ccc(C#N)cc2c1C(=O)OC
inactive: [3] 89 % of control | [4] 95 % of control | [5] 95 % of control

O=C1N(c2ccccc2)P(Cl)(Cl)(Cl)N1c1ccccc1
inactive: [6] 93 % of control | [7] 110 % of control | [8] 93 % of control

c1ccc2[nH]c(SCCSc3nc4ccccc4[nH]3)nc2c1
inactive: [6] 111 % of control | [7] 107 % of control | [8] 92 % of control

O=C(O)/C(=N\Nc1ccccc1)c1ccccc1
inactive: [9] 107 % of control | [1] 96 % of control | [2] 110 % of control | [10] 90 % of control

COC(c1ccccc1)C(Br)C(=O)c1ccccc1 (configuration not stated)
inactive: dose: 100.0 mg/kg/injection, schedule: Q04DX003 (ip), vehicle: acetone 96 % of control | dose: 200.0 mg/kg/injection, schedule: Q04DX003 (ip), vehicle: acetone 101 % of control | dose: 400.0 mg/kg/injection, schedule: Q04DX003 (ip), vehicle: acetone 95 % of control

O=C1NC(=O)N2CCSC2(Cc2ccccc2)N1 (configuration not stated)
inactive: [9] 108 % of control | [1] 96 % of control | [2] 96 % of control | [10] 100 % of control

c1ccc(CCCCc2ccc(CCCCc3ccccc3)cc2)cc1
inactive: [1] 101 % of control | [2] 93 % of control | [10] 93 % of control

O=C1CCN(Cc2ccccc2)C(=S)N1
inactive: dose: 100.0 mg/kg/injection, schedule: Q01DX Z (ip), vehicle: methylcellulose (MC) 93 % of control

CNC(=O)NC1C(O)COC(OC)C1O (configuration not stated)
inactive: dose: 6.25 mg/kg/injection, schedule: Q01DX009 (ip), vehicle: saline with Tween-80 101 % of control | dose: 12.5 mg/kg/injection, schedule: Q01DX009 (ip), vehicle: saline with Tween-80 101 % of control | dose: 25.0 mg/kg/injection, schedule: Q01DX009 (ip), vehicle: saline with Tween-80 105 % of control | [11] 100 % of control

Cc1ccc(/C=C/c2ccccc2)cc1
inactive: dose: 75.0 mg/kg/injection, schedule: Q01DX009 (ip), vehicle: Klucel (hydroxypropylcellulose) (HPC) 98 % of control | dose: 150.0 mg/kg/injection, schedule: Q01DX009 (ip), vehicle: Klucel (hydroxypropylcellulose) (HPC) 104 % of control | dose: 300.0 mg/kg/injection, schedule: Q01DX009 (ip), vehicle: Klucel (hydroxypropylcellulose) (HPC) 103 % of control

O=C(NO)c1ccccc1
inactive: dose: 25.0 mg/kg/injection, schedule: Q03HX032 (ip), vehicle: saline 97 % of control | dose: 38.0 mg/kg/injection, schedule: Q03HX032 (ip), vehicle: saline 95 % of control | dose: 50.0 mg/kg/injection, schedule: Q01DX009 (ip), vehicle: Klucel (hydroxypropylcellulose) (HPC) 90 % of control | [11] 98 % of control | dose: 57.0 mg/kg/injection, schedule: Q01DX015 (ip), vehicle: saline 92 % of control | dose: 57.0 mg/kg/injection, schedule: Q03HX032 (ip), vehicle: saline 100 % of control | dose: 62.0 mg/kg/injection, schedule: Q03HX024 (ip), vehicle: saline 96 % of control | dose: 85.0 mg/kg/injection, schedule: Q01DX015 (ip), vehicle: saline 90 % of control | dose: 85.0 mg/kg/injection, schedule: Q03HX032 (ip), vehicle: saline 98 % of control and 100 % of control | [1] 95 % of control | [12] 97 % of control and 113 % of control | dose: 100.0 mg/kg/injection, schedule: Q01DX009 (ip), vehicle: acetone 98 % of control | dose: 100.0 mg/kg/injection, schedule: Q01DX009 (ip), vehicle: saline with Tween-80 96 % of control | [13] 103 % of control | dose: 125.0 mg/kg/injection, schedule: Q03HX024 (ip), vehicle: saline 91 % of control | dose: 130.0 mg/kg/injection, schedule: Q01DX015 (ip), vehicle: saline 100 % of control | dose: 130.0 mg/kg/injection, schedule: Q03HX032 (ip), vehicle: saline 98 % of control | dose: 177.0 mg/kg/injection, schedule: Q01DX009 (ip), vehicle: saline 100 % of control | dose: 178.0 mg/kg/injection, schedule: Q01DX009 (ip), vehicle: saline with Tween-80 110 % of control | [2] 92 % of control | [14] 115 % of control and 124 % of control | dose: 200.0 mg/kg/injection, schedule: Q01DX009 (ip), vehicle: acetone 98 % of control | dose: 200.0 mg/kg/injection, schedule: Q01DX009 (ip), vehicle: saline with Tween-80 112 % of control | dose: 200.0 mg/kg/injection, schedule: Q01DX015 (ip), vehicle: saline 97 % of control and 113 % of control | [15] 108 % of control | dose: 264.0 mg/kg/injection, schedule: Q01DX009 (ip), vehicle: acetone 120 % of control | dose: 264.0 mg/kg/injection, schedule: Q01DX009 (ip), vehicle: saline 123 % of control | dose: 264.0 mg/kg/injection, schedule: Q04DX003 (ip), vehicle: saline 105 % of control and 112 % of control | dose: 266.0 mg/kg/injection, schedule: Q01DX009 (ip), vehicle: saline with Tween-80 113 % of control | dose: 300.0 mg/kg/injection, schedule: Q01DX015 (ip), vehicle: saline 121 % of control | [17] 117 % of control and 91 % of control
active: [16] 168 % of control | dose: 400.0 mg/kg/injection, schedule: Q01DX009 (ip), vehicle: acetone 153 % of control | dose: 450.0 mg/kg/injection, schedule: Q01DX015 (ip), vehicle: saline 153 % of control | dose: 600.0 mg/kg/injection, schedule: Q01DX009 (ip), vehicle: saline 159 % of control

COC(=O)c1ccc(OCCOc2ccc(C(C)(C)CC(C)(C)C)cc2)c(N)c1
inactive: [12] 97 % of control | [14] 105 % of control | [16] 91 % of control

CC(=O)Nc1ccc[n+](C)c1
inactive: [13] 108 % of control | [15] 105 % of control | [17] 100 % of control

Cn1cnc([N+](=O)[O-])c1S(=O)(=O)NCN1CCOCC1
inactive: dose: 25.0 mg/kg/injection, schedule: Q01DX009 (ip), vehicle: Klucel (hydroxypropylcellulose) (HPC) 117 % of control | [12] 113 % of control | [14] 113 % of control

Cc1c(Cl)cccc1NC(=O)Oc1ccccc1Cc1ccccc1
inactive: [11] 96 % of control and 102 % of control | dose: 100.0 mg/kg/injection, schedule: Q01DX001 (ip), vehicle: saline with Tween-80 95 % of control | [3] 96 % of control and 110 % of control | dose: 100.0 mg/kg/injection, schedule: Q04DX003 (ip), vehicle: saline with Tween-80 100 % of control | dose: 200.0 mg/kg/injection, schedule: Q01DX001 (ip), vehicle: saline with Tween-80 105 % of control | [4] 93 % of control and 92 % of control | dose: 200.0 mg/kg/injection, schedule: Q04DX003 (ip), vehicle: saline with Tween-80 94 % of control | dose: 400.0 mg/kg/injection, schedule: Q01DX001 (ip), vehicle: saline with Tween-80 86 % of control | dose: 400.0 mg/kg/injection, schedule: Q01DX009 (ip), vehicle: saline with Tween-80 97 % of control and 89 % of control | [5] 89 % of control and 91 % of control | dose: 400.0 mg/kg/injection, schedule: Q04DX003 (ip), vehicle: saline with Tween-80 86 % of control

CCOC(=O)CC1=NCCc2cc(OC)c(OC)cc21
inactive: dose: 25.0 mg/kg/injection, schedule: Q04DX002 (ip), vehicle: Klucel (hydroxypropylcellulose) (HPC) 102 % of control | dose: 50.0 mg/kg/injection, schedule: Q04DX002 (ip), vehicle: Klucel (hydroxypropylcellulose) (HPC) 99 % of control | [6] 96 % of control

COc1cc2cnccc2cc1OCc1ccccc1
inactive: dose: 25.0 mg/kg/injection, schedule: Q01DX009 (ip), vehicle: water 96 % of control | dose: 50.0 mg/kg/injection, schedule: Q01DX009 (ip), vehicle: water 97 % of control | dose: 100.0 mg/kg/injection, schedule: Q01DX009 (ip), vehicle: water 100 % of control
